According to ChEMBL document CHEMBL5715954, “Silencing c-Myc translation as a therapeutic strategy through targeting PI3Kδ and CK1ε in hematological malignancies” (Blood, 2017):

What was measured:
Set-up in all cases: scale not given: the % may be the effect or the level left
[1] = molecular target: Mitogen-activated protein kinase kinase kinase 11 (Homo sapiens) (UniProt Q16584); assay: Inhibition of human MLK3 assessed as enzyme activity at 1 uM using myelin basic protein as substrate preincubated for 20 mins followed by [gamma-33P]-ATP addition and measured after 120 mins by radiometric Hot-SpotSM Kinase assay relative to control
Chain of Mitogen-activated protein kinase kinase kinase 11 (Homo sapiens) (Q16584 whole entry, looked up): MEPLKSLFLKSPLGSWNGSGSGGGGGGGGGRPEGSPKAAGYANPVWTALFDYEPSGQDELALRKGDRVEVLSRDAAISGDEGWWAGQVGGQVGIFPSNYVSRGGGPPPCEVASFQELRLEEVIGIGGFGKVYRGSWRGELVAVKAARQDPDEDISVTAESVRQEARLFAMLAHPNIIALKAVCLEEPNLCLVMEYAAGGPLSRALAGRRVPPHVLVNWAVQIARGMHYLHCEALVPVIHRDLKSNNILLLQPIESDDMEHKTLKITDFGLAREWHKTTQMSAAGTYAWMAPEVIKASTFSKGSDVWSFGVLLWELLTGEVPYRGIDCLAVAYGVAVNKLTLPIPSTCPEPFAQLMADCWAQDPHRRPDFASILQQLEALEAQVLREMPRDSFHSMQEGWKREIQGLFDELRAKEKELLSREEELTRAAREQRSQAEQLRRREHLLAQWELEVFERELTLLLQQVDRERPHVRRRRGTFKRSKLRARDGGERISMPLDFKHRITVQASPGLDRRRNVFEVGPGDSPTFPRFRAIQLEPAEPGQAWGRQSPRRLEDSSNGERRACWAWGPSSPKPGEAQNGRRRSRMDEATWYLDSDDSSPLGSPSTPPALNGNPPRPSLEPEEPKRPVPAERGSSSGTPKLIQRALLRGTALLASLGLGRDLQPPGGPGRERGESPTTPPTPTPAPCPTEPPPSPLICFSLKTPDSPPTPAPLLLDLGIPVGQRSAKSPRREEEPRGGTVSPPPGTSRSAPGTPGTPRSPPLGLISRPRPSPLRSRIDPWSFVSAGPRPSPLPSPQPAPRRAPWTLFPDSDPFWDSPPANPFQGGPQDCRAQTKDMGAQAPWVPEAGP

[2] = molecular target: SRSF protein kinase 3 (Homo sapiens) (UniProt Q9UPE1); assay: Inhibition of human MSSK1 assessed as enzyme activity at 1 uM using GRSRSRSRSR as substrate preincubated for 20 mins followed by [gamma-33P]-ATP addition and measured after 120 mins by radiometric Hot-SpotSM Kinase assay relative to control
Chain of SRSF protein kinase 3 (Homo sapiens) (Q9UPE1 whole entry): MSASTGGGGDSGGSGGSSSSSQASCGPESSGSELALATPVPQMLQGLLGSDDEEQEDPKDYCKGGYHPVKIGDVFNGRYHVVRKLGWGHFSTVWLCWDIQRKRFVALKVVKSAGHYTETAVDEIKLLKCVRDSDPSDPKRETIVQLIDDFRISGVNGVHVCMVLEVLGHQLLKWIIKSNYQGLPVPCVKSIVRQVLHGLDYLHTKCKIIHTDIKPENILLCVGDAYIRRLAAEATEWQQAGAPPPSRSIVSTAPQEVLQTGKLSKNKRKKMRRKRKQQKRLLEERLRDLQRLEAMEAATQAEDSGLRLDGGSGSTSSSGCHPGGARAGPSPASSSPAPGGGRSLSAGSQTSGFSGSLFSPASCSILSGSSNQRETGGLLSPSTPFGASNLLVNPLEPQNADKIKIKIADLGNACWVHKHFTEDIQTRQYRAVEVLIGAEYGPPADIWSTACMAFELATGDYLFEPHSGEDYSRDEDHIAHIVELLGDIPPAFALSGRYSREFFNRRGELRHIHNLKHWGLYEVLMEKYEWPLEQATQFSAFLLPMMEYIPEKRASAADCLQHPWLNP

[3] = molecular target: Glycogen synthase kinase-3 alpha (Homo sapiens) (UniProt P49840); assay: Inhibition of human GSK3a assessed as enzyme activity at 1 uM using YRRAAVPPSPSLSRHSSPHQ(pS)EDEEE as substrate preincubated for 20 mins followed by [gamma-33P]-ATP addition and measured after 120 mins by radiometric Hot-SpotSM Kinase assay relative to control
Chain of Glycogen synthase kinase-3 alpha (Homo sapiens) (P49840 2-483 limits assumed): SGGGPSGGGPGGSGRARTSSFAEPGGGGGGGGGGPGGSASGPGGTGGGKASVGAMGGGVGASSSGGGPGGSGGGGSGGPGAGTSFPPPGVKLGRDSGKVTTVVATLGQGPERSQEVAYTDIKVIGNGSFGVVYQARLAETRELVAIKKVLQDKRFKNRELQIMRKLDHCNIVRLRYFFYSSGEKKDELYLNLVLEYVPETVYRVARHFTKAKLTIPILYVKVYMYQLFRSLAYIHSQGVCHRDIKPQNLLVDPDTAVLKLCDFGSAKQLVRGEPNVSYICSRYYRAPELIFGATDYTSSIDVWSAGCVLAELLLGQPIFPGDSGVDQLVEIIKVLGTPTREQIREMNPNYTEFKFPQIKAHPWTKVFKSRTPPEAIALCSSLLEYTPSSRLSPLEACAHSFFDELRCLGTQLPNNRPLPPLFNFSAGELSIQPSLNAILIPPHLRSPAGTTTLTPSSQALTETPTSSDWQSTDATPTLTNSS

[4] = molecular target: Macrophage colony-stimulating factor 1 receptor (Homo sapiens) (UniProt P07333); assay: Inhibition of human FMS assessed as enzyme activity at 1 uM using poly[Glu:Tyr] (4:1) as substrate preincubated for 20 mins followed by [gamma-33P]-ATP addition and measured after 120 mins by radiometric Hot-SpotSM Kinase assay relative to control
Chain of Macrophage colony-stimulating factor 1 receptor (Homo sapiens) (P07333 whole entry): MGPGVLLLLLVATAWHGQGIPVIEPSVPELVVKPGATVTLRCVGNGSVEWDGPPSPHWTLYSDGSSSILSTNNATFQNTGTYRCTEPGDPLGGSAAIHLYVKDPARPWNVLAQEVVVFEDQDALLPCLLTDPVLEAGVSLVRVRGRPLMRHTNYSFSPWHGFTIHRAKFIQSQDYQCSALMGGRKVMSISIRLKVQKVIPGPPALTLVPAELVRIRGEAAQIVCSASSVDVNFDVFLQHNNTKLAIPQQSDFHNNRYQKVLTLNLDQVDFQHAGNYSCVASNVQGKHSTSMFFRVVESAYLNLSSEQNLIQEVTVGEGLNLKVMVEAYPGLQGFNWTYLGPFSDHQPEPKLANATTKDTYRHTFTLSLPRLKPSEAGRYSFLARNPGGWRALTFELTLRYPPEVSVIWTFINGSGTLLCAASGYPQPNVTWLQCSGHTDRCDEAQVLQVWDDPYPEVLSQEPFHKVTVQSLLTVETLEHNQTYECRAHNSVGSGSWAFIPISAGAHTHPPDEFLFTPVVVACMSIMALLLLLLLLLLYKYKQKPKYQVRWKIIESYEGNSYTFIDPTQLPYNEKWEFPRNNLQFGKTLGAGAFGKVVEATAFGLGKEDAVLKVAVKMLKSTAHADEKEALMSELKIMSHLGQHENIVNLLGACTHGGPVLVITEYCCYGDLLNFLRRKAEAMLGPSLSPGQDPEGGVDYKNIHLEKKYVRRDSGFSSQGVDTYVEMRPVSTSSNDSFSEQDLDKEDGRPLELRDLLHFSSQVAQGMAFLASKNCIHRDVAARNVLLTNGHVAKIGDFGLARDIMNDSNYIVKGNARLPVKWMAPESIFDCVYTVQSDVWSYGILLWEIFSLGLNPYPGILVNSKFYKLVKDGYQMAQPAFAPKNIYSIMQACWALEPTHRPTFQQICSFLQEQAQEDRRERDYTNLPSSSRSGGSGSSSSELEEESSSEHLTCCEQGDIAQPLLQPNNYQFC

[5] = molecular target: T1, Mitogen-activated protein kinase kinase kinase 2 (Homo sapiens) (UniProt Q9Y2U5); assay: Inhibition of human MEKK2 assessed as enzyme activity at 1 uM using myelin basic protein as substrate preincubated for 20 mins followed by [gamma-33P]-ATP addition and measured after 120 mins by radiometric Hot-SpotSM Kinase assay relative to control
T1 sequence (whole entry): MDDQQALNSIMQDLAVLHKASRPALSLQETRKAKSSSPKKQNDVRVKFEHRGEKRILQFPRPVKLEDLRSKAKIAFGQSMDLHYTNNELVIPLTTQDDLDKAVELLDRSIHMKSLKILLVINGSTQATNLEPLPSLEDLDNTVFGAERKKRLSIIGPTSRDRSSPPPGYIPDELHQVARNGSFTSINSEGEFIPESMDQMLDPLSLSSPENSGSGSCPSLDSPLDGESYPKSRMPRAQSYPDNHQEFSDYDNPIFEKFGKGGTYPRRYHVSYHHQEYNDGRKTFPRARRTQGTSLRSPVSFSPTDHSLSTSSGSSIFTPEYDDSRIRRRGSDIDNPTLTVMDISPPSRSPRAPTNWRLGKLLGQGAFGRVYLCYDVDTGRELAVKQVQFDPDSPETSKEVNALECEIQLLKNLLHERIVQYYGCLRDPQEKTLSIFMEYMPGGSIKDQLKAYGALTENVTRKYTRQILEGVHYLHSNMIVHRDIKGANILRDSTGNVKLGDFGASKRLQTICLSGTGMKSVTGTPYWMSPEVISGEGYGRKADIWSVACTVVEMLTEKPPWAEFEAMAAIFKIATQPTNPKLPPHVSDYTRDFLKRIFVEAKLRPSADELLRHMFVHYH

[6] = molecular target: T2, Megakaryocyte-associated tyrosine-protein kinase (Homo sapiens) (UniProt P42679); assay: Inhibition of human CTK/MATK assessed as enzyme activity at 1 uM using poly[Glu:Tyr] (4:1) as substrate preincubated for 20 mins followed by [gamma-33P]-ATP addition and measured after 120 mins by radiometric Hot-SpotSM Kinase assay relative to control
T2 sequence (whole entry): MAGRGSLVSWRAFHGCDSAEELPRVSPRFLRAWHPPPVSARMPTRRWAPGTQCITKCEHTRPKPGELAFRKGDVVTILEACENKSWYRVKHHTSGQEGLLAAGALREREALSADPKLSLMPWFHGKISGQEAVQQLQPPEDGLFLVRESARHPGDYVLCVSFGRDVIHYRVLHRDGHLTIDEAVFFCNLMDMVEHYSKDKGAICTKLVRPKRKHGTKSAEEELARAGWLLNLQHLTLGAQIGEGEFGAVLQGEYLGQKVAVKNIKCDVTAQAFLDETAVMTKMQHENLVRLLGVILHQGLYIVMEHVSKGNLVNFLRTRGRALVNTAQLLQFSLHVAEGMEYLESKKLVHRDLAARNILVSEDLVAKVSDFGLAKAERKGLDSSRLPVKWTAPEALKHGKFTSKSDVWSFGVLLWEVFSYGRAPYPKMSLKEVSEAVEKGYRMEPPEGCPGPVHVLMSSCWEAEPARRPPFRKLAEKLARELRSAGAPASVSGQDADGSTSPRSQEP

[7] = molecular target: T3, Tyrosine-protein kinase ZAP-70 (Homo sapiens) (UniProt P43403); assay: Inhibition of human ZAP70 assessed as enzyme activity at 1 uM using poly[Glu:Tyr] (4:1) as substrate preincubated for 20 mins followed by [gamma-33P]-ATP addition and measured after 120 mins by radiometric Hot-SpotSM Kinase assay relative to control
T3 sequence (whole entry): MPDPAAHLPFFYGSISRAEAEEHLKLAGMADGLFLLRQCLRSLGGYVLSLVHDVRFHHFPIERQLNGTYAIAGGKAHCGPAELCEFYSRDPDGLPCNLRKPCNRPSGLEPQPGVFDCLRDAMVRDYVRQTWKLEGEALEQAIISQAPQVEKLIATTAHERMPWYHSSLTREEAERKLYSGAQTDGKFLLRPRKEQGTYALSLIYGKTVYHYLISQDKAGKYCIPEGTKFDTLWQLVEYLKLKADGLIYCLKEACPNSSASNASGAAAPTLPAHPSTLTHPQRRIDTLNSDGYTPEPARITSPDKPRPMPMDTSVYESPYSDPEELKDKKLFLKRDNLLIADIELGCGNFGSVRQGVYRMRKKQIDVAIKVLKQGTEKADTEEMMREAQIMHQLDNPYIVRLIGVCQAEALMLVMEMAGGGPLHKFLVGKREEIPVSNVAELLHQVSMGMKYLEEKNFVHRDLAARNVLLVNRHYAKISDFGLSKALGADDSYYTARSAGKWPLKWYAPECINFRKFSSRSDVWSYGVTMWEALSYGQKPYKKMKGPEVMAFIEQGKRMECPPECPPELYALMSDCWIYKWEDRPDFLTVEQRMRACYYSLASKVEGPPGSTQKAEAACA

Compound `CC[C@H](Nc1ncnc2[nH]cnc12)c1nc2cccc(F)c2c(=O)n1-c1ccccc1` has an Activity [1] of 79.8%, an Activity [2] of 101% and an Activity [3] of 93.7%. For the same compound, the Activity [4] was 98.1%, the Activity [5] was 101% and the Activity [6] was 105%. The Activity [7] was 100%.

In the case of `CC(C)Oc1ccc(-c2nn([C@@H](C)c3oc4ccc(F)cc4c(=O)c3-c3cccc(F)c3)c3ncnc(N)c23)cc1F` [UMBRALISIB], the Activity [1] is reported as 80.9%, the Activity [2] is reported as 107% and the Activity [3] is reported as 104%. The Activity [4] was 104%, the Activity [5] was 108% and the Activity [6] was 106%. For the same compound, the Activity [7] was 99.4%.

With `C[C@H](Nc1ncnc2nc[nH]c12)c1cc2cccc(Cl)c2c(=O)n1-c1ccccc1` the Activity [1] was 75.1%, the Activity [2] was 102% and the Activity [3] was 95.3%. It also gave an Activity [4] of 100%, an Activity [5] of 94.9% and an Activity [6] of 105%. It also gave an Activity [7] of 99.7%.
